Laboratory results as given in paper PMC7824103 (Viruses, 2020).
Read-outs that look alike come from different tables or passages of the source.

Assays:
in vitro [1] = details: human
EBOV L (RdRp) activity = test: cells; type: cell-based, Ebola virus; details: for IC50: Zaire ebolavirus, HEK293T/17, 24 h, read-out: IC50 (minigenome luciferase)
EBOV [2] = test: microbe, parasite or virus in culture; type: cell-based, Ebola virus; details: Zaire ebolavirus; for IC50: read-out: Huh7 IC50; for IC90: read-out: Huh7 IC90
coxsackie virus B4 = details: cited from earlier work
[3] = system: human parainfluenza virus 3; details: cited from earlier work
[4] = system: recombinant cowpox virus expressing GFP (rCPXV-GFP); test: microbe, parasite or virus in culture; type: cell-based; details: read-out: Max at conc (percent inhibition)
HEK 293T/T17 cells = details: human
[5] = mouse, in vivo; cited from earlier work
Sindbis virus = details: cited from earlier work
[6] = system: Marburg virus/H. sapiens-tc/AGO/2005/Angola-1379v (MARV); test: organism not typed; type: cell-based
patients = details: human, in vivo; cited from earlier work
[7] = system: vesicular stomatitis Indiana virus; details: cited from earlier work
[8] = system: Ebola virus/H.sapiens-tc/GIN/2014/Makona-C05 (EBOV); test: organism not typed; type: cell-based
in vitro [9] = test: in vitro
herpes simplex virus 1 = details: cited from earlier work
vaccinia virus = details: cited from earlier work
EBOV [10] = test: microbe, parasite or virus in culture; type: cell-based, Ebola virus; details: Zaire ebolavirus
[11] = system: recombinant vaccinia virus expressing GFP (rVACV-GFP); test: organism not typed; type: cell-based
African green monkeys = details: monkey, in vivo; cited from earlier work
[12] = system: HIV-1 particles pseudotyped with VSIV G; type: cell-based, human immunodeficiency virus 1
reovirus type 1 = details: cited from earlier work
[13] = system: Lassa virus strain Josiah (LASV); test: microbe, parasite or virus in culture; type: cell-based; details: read-out: Max at conc (percent inhibition)
herpes simplex virus 2 = details: cited from earlier work
poliovirus 1 = details: cited from earlier work
[14] = read-out: Max at conc (percent inhibition)
[15] = Orthopoxvirus vaccinia, read-out: Max at conc (percent inhibition)

CN(Cc1cnc2nc(N)nc(N)c2n1)c1ccc(C(=O)N[C@@H](CCC(=O)O)C(=O)O)cc1 [NSC 740]
CC50 (in vitro [1]): 0.13 µM

CCc1nc(N)nc(N)c1-c1ccc(Cl)cc1 [NSC 3061]
CC50 (in vitro [1]): 22 µM

COc1cc(Cc2cnc(N)nc2N)cc(OC)c1OC [NSC 106568]
CC50 (in vitro [1]): > 60 µM

COc1cc(NS(C)(=O)=O)ccc1Nc1c2ccccc2nc2ccccc12 [NSC 249992]
CC50 (in vitro [1]): 22 µM

C#CCC(Cc1cnc2nc(N)nc(N)c2n1)c1ccc(C(=O)N[C@@H](CCC(=O)O)C(=O)O)cc1 (stereo partly drawn) [NSC 754230]
CC50 (in vitro [1]): 0.004 µM

CCC(CC)COC(=O)[C@H](C)N[P@](=O)(OC[C@H]1O[C@@](C#N)(c2ccc3c(N)ncnn23)[C@H](O)[C@@H]1O)Oc1ccccc1 [Remdesivir, remdesivir, reference compound]
IC50 of constant ratio S:R, relative to remdesivir concentration (EBOV L (RdRp) activity): 1,444 nM | IC50 (EBOV L (RdRp) activity): 1.44 µM | IC50 (EBOV [2]; Huh-7, 1 h): 0.0877 µM | IC90 (EBOV [2]; Huh-7, 1 h): 0.18 µM | IC50 (EBOV [2]; Huh-7, 2 h): 0.0746 µM | IC90 (EBOV [2]; Huh-7, 2 h): 0.154 µM | IC50 (EBOV [2]; Huh-7, 4 h): 0.105 µM | IC90 (EBOV [2]; Huh-7, 4 h): 0.188 µM | IC50 (EBOV [2]; Huh-7, 8 h): 0.116 µM | IC90 (EBOV [2]; Huh-7, 8 h): 0.224 µM | IC50 (EBOV [2]; Huh-7, 24 h): 0.117 µM | IC90 (EBOV [2]; Huh-7, 24 h): 0.231 µM

NC(=O)c1cn([C@@H]2O[C@H](CO)[C@@H](O)[C@H]2O)c2ncnc(N)c12 [Sangivamycin, 4-amino-7-(β-D-ribofuranosyl)pyrrolo[2,3-d]pyrimidine-5-carboxamide]
IC50 (coxsackie virus B4): 0.129 µM | IC50 [3]: 0.065 µM | inhibition at 0.6 µM [4]: 97% | cytotoxicity (HEK 293T/T17 cells): approximately 30% | tissue retention [5]: retained in tissues for days | IC50 (Sindbis virus): 0.646 µM | IC50 ([6]; read-out: IC50 values (range across cell types)): 0.1 to 0.3 µM | inhibition at 0.6 µM [6, 14]: 100% | activity against cancer in clinical trials (patients): inactive | tolerability in patients (patients): well tolerated | IC50 [7]: 0.065 µM | IC50 of constant ratio S:R, relative to sangivamycin concentration (EBOV L (RdRp) activity): 0.0464 µM | reduction of luciferase activity vs untreated control (EBOV L (RdRp) activity): greater than 80% | IC50 (EBOV L (RdRp) activity): 0.0464 µM | IC50 [8]: 0.11 ± 0.008 µM | IC50 ([8]; Zaire ebolavirus): 0.06 ± 0.003 µM | IC50 ([8]; Zaire ebolavirus, read-out: IC50 values (range across cell types)): 0.04 to 0.1 µM | inhibition at 0.6 µM ([8]; Zaire ebolavirus, read-out: Max at conc (percent inhibition)): 100% | CC50 (in vitro [9]): > 0.6 µM | IC50 (herpes simplex virus 1): 0.226 µM | IC50 (vaccinia virus): 0.065 µM | IC50 (EBOV [10]): 0.06 ± 0.003 µM | inhibition at 0.15 µM (EBOV [10]; [14]): 100% | IC50 [11]: > 0.004 µM | IC50 ([11]; Orthopoxvirus vaccinia): 0.02 ± 0.004 µM | inhibition at 0.075 µM [11, 15]: 98% | inhibition at 0.3 µM [11, 15]: 95.4% | tolerability (African green monkeys): tolerated | HIV-1 pseudotype transduction [12]: did not affect | IC50 (reovirus type 1): 0.323 µM | inhibition at 0.3 µM [13]: 104% | inhibition at 0.6 µM [13]: 99.7% | IC50 (herpes simplex virus 2): 0.226 µM | IC50 (poliovirus 1): 0.226 µM | IC50 (EBOV [2]; Huh-7, 1 h): 0.103 µM | IC90 (EBOV [2]; Huh-7, 1 h): 0.147 µM | IC50 (EBOV [2]; Huh-7, 2 h): 0.106 µM | IC90 (EBOV [2]; Huh-7, 2 h): 0.143 µM | IC50 (EBOV [2]; Huh-7, 4 h): 0.057 µM | IC90 (EBOV [2]; Huh-7, 4 h): 0.132 µM | IC50 (EBOV [2]; Huh-7, 8 h): 0.0721 µM | IC90 (EBOV [2]; Huh-7, 8 h): 0.163 µM | IC50 (EBOV [2]; Huh-7, 24 h): 0.0641 µM | IC90 (EBOV [2]; Huh-7, 24 h): 0.236 µM

NSC 133071
CC50 (HEK 293T cells): > 60 µM

sangivamycin HCl [NSC 143648]
CC50 (HEK 293T cells): > 60 µM
